Data: the NIST ThermoML archive (doi:10.1021/je500381c)

Key:
[1] = for viscosity / mass density: 100 kPa, Liquid; for mass density: Vibrating tube method; for surface tension liquid-gas: Drop volume
[2] = refractive index (Na D-line) (dimensionless); details: 101.33 kPa, Liquid, Standard Abbe refractometry
[3] = refractive index (Na D-line) (dimensionless); xn = mol fraction of the nth substance listed; details: 100 kPa, Liquid, Standard Abbe refractometry
[4] = xn = mol fraction of the nth substance listed; details: for mass density / viscosity: 100 kPa, Liquid; for mass density: Vibrating tube method; for surface tension liquid-gas: Drop volume

CC12CC3CC(C)(C1)CC(C)(C3)C2 [1,3,5-trimethyladamantane]
Details | mass density, [1] [kg/m3] | refractive index, [2] | surface tension liquid-gas, [1] [mN/m] | viscosity, [1] [mPa·s]
293.15 K | 887.48 | 1.4736 | – | 2.601
298.15 K | 883.99 | 1.4715 | 26.17 | 2.338
303.15 K | 880.47 | 1.4695 | – | 2.118
308.15 K | 876.94 | – | – | 1.93
313.15 K | 873.4 | 1.4649 | – | 1.765
318.15 K | 869.86 | – | – | 1.621
323.15 K | 866.31 | 1.4612 | – | 1.494
328.15 K | 862.76 | – | – | 1.384
333.15 K | 859.2 | 1.4568 | – | 1.284

CC12CC3CC(C1)CC(C)(C3)C2 [1,3-dimethyladamantane]
Details | mass density, [1] [kg/m3] | refractive index, [2] | surface tension liquid-gas, [1] [mN/m] | viscosity, [1] [mPa·s]
293.15 K | 901.58 | 1.4776 | – | 3.764
298.15 K | 898.04 | 1.4757 | 27.88 | 3.345
303.15 K | 894.48 | 1.4734 | – | 3.004
308.15 K | 890.92 | – | – | 2.711
313.15 K | 887.35 | 1.4691 | – | 2.458
318.15 K | 883.77 | – | – | 2.237
323.15 K | 880.19 | 1.4651 | – | 2.045
328.15 K | 876.6 | – | – | 1.876
333.15 K | 873.01 | 1.461 | – | 1.728

CC12CC3CC(C1)CC(C)(C3)C2 [1,3-dimethyladamantane] + OCC1CCCCC1
x2 = 0
Details | mass density, [4] [kg/m3] | refractive index, [3] | surface tension liquid-gas, [4] [mN/m] | viscosity, [4] [mPa·s]
293.15 K | 901.58 | 1.4776 | – | 3.764
298.15 K | 898.04 | 1.4757 | 27.88 | 3.345
303.15 K | 894.48 | 1.4734 | – | 3.004
308.15 K | 890.92 | – | – | 2.711
313.15 K | 887.35 | 1.4691 | – | 2.458
318.15 K | 883.77 | – | – | 2.237
323.15 K | 880.19 | 1.4651 | – | 2.045
328.15 K | 876.6 | – | – | 1.876
333.15 K | 873.01 | 1.461 | – | 1.728

CCC12CC3CC(CC(C3)C1)C2 [1-ethyladamantane]
Details | mass density, [1] [kg/m3] | refractive index, [2] | surface tension liquid-gas, [1] [mN/m] | viscosity, [1] [mPa·s]
293.15 K | 937.11 | 1.4927 | – | 6.371
298.15 K | 933.58 | 1.4906 | 29.87 | 5.565
303.15 K | 929.99 | 1.4884 | – | 4.903
308.15 K | 926.4 | – | – | 4.348
313.15 K | 922.81 | 1.4839 | – | 3.878
318.15 K | 919.21 | – | – | 3.478
323.15 K | 915.62 | 1.4802 | – | 3.134
328.15 K | 912.01 | – | – | 2.838
333.15 K | 908.41 | 1.4759 | – | 2.581

OCC1CCCCC1 [cyclohexylmethanol]
Details | mass density, [1] [kg/m3] | refractive index, [2] | surface tension liquid-gas, [1] [mN/m] | viscosity, [1] [mPa·s]
293.15 K | 929.76 | 1.4629 | – | 37.75
298.15 K | 926.25 | 1.4612 | 32.43 | 28.67
303.15 K | 922.71 | 1.4592 | – | 22.34
308.15 K | 919.14 | – | – | 17.57
313.15 K | 915.53 | 1.455 | – | 14.09
318.15 K | 911.88 | – | – | 11.43
323.15 K | 908.19 | 1.4507 | – | 9.354
328.15 K | 904.45 | – | – | 7.766
333.15 K | 900.67 | 1.4463 | – | 6.462

OCC1CCCCC1 [cyclohexylmethanol] + CC12CC3CC(C)(C1)CC(C)(C3)C2
x1 = 1
Details | mass density, [4] [kg/m3] | refractive index, [3] | surface tension liquid-gas, [4] [mN/m] | viscosity, [4] [mPa·s]
293.15 K | 929.76 | 1.4629 | – | 37.75
298.15 K | 926.25 | 1.4612 | 32.43 | 28.67
303.15 K | 922.71 | 1.4592 | – | 22.34
308.15 K | 919.14 | – | – | 17.57
313.15 K | 915.53 | 1.455 | – | 14.09
318.15 K | 911.88 | – | – | 11.43
323.15 K | 908.19 | 1.4507 | – | 9.354
328.15 K | 904.45 | – | – | 7.766
333.15 K | 900.67 | 1.4463 | – | 6.462

OCC1CCCCC1 [cyclohexylmethanol] + CCC12CC3CC(CC(C3)C1)C2
x1 = 1
Details | mass density, [4] [kg/m3] | refractive index, [3] | surface tension liquid-gas, [4] [mN/m] | viscosity, [4] [mPa·s]
293.15 K | 929.76 | 1.4629 | – | 37.75
298.15 K | 926.25 | 1.4612 | 32.43 | 28.67
303.15 K | 922.71 | 1.4592 | – | 22.34
308.15 K | 919.14 | – | – | 17.57
313.15 K | 915.53 | 1.455 | – | 14.09
318.15 K | 911.88 | – | – | 11.43
323.15 K | 908.19 | 1.4507 | – | 9.354
328.15 K | 904.45 | – | – | 7.766
333.15 K | 900.67 | 1.4463 | – | 6.462

CCCCCCCO [heptan-1-ol]
Details | mass density, [1] [kg/m3] | refractive index, [2] | surface tension liquid-gas, [1] [mN/m] | viscosity, [1] [mPa·s]
293.15 K | 822.28 | 1.4236 | – | 6.887
298.15 K | 818.79 | 1.422 | 26.23 | 5.812
303.15 K | 815.28 | 1.4203 | – | 4.95
308.15 K | 811.74 | – | – | 4.245
313.15 K | 808.16 | 1.4156 | – | 3.654
318.15 K | 804.56 | – | – | 3.17
323.15 K | 800.92 | 1.4115 | – | 2.768
328.15 K | 797.24 | – | – | 2.428
333.15 K | 793.52 | 1.4077 | – | 2.141

CCCCCCCO [heptan-1-ol] + CC12CC3CC(C1)CC(C)(C3)C2
x1 = 1
Details | mass density, [4] [kg/m3] | refractive index, [3] | surface tension liquid-gas, [4] [mN/m] | viscosity, [4] [mPa·s]
293.15 K | 822.28 | 1.4236 | – | 6.887
298.15 K | 818.79 | 1.422 | 26.23 | 5.812
303.15 K | 815.28 | 1.4203 | – | 4.95
308.15 K | 811.74 | – | – | 4.245
313.15 K | 808.16 | 1.4156 | – | 3.654
318.15 K | 804.56 | – | – | 3.17
323.15 K | 800.92 | 1.4115 | – | 2.768
328.15 K | 797.24 | – | – | 2.428
333.15 K | 793.52 | 1.4077 | – | 2.141

CCCCCCCO [heptan-1-ol] + CC12CC3CC(C)(C1)CC(C)(C3)C2
x1 = 1
Details | mass density, [4] [kg/m3] | refractive index, [3] | surface tension liquid-gas, [4] [mN/m] | viscosity, [4] [mPa·s]
293.15 K | 822.28 | 1.4236 | – | 6.887
298.15 K | 818.79 | 1.422 | 26.23 | 5.812
303.15 K | 815.28 | 1.4203 | – | 4.95
308.15 K | 811.74 | – | – | 4.245
313.15 K | 808.16 | 1.4156 | – | 3.654
318.15 K | 804.56 | – | – | 3.17
323.15 K | 800.92 | 1.4115 | – | 2.768
328.15 K | 797.24 | – | – | 2.428
333.15 K | 793.52 | 1.4077 | – | 2.141

CCCCCCCO [heptan-1-ol] + CCC12CC3CC(CC(C3)C1)C2
x1 = 1
Details | mass density, [4] [kg/m3] | refractive index, [3] | surface tension liquid-gas, [4] [mN/m] | viscosity, [4] [mPa·s]
293.15 K | 822.28 | 1.4236 | – | 6.887
298.15 K | 818.79 | 1.422 | 26.23 | 5.812
303.15 K | 815.28 | 1.4203 | – | 4.95
308.15 K | 811.74 | – | – | 4.245
313.15 K | 808.16 | 1.4156 | – | 3.654
318.15 K | 804.56 | – | – | 3.17
323.15 K | 800.92 | 1.4115 | – | 2.768
328.15 K | 797.24 | – | – | 2.428
333.15 K | 793.52 | 1.4077 | – | 2.141
